Results on 65 molecules are retold here after BindingDB's records for doi:10.7270/Q2TX3CTT (Broad Institute, 2010).

Structures can show the parent of a compound that is named as a salt.

Sequence of Glycogen synthase kinase-3 beta (P49841 whole entry): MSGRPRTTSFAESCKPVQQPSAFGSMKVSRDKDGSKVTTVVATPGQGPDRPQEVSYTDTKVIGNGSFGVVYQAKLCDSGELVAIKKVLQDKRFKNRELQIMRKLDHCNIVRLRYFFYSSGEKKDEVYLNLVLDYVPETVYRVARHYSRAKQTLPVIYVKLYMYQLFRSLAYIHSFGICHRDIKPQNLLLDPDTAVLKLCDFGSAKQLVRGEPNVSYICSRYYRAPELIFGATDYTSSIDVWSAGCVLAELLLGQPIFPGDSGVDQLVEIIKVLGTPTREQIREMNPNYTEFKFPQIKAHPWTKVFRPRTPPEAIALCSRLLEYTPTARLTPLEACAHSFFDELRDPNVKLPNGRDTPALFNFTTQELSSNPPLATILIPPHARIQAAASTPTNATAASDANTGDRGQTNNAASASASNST

This experiment addresses Glycogen synthase kinase-3 beta (Homo sapiens, UniProt P49841). Kind of experiment: concentration-response blocking of human GSK3B – biochemical, luminescence, cell-free homogeneous, retest, dose response (AID 434954).
Turning to `COc1ccc(C(=O)/C=C2/C(=O)Nc3ccccc32)c(OC)c1` [SMR000543845], the concentration giving a half-maximal response (EC50) is more than 300 µM.

In the case of `O=C1Nc2cc(C(=O)NCC3CCCO3)ccc2S/C1=C/c1ccccc1F` (stereo not given), the EC50 is more than 300 µM.

Regarding `Clc1ccc(CSc2nnc(-c3ccncc3)o2)c(Cl)c1` [2-[(2,4-dichlorobenzyl)thio]-5-(4-pyridyl)-1,3,4-oxadiazole], the EC50 was 6.31 µM.

As for `COc1cccc2cc(C(=O)OC(C)C(=O)c3ccc(C)cc3)c(=O)oc12` (stereo not given), the 50% effective concentration (EC50) was more than 300 µM.

The molecule `Cc1c(NC(=O)C(C)OC(=O)COc2ccccc2)c(=O)n(-c2ccccc2)n1C` (stereo not given) [[1-[(1,5-dimethyl-3-oxidanylidene-2-phenyl-pyrazol-4-yl)amino]-1-oxidanylidene-propan-2-yl] 2-phenoxyethanoate] gave a 50% effective concentration (EC50) of more than 300 µM.

`Cc1cccc(C(=O)Nc2ccc(O)c3c(=O)cc(-c4ccccc4Cl)oc23)c1` registered a concentration for a half-maximal effect (EC50) of more than 300 µM.

For the molecule `O=C(Nc1ccc(O)c2c(=O)cc(-c3ccccc3Cl)oc12)c1ccc(F)cc1` [N-[2-(2-chlorophenyl)-5-oxidanyl-4-oxidanylidene-chromen-8-yl]-4-fluoranyl-benzamide], the EC50 was found to be 13.9 µM.

Molecule `CCOC(=O)C1C(C)=Nc2ncnn2C1c1ccc2c(c1)OCO2` (stereo not given) returned an EC50 of more than 300 µM.

Consider `CCn1c(SCC(=O)Nc2ccc(Br)cn2)nnc1C1CC1` [SMR000671057], for which the concentration giving a half-maximal response (EC50) came to 75 µM.

`NC(=O)c1c(NC(=O)c2ccncc2)sc2c1CCCC2` returned an EC50 of more than 300 µM.

`COc1ccc2c(CC(=O)Nc3ncc(C)s3)coc2c1` [2-(6-methoxy-1-benzofuran-3-yl)-N-(5-methyl-1,3-thiazol-2-yl)ethanamide] displayed a concentration for a half-maximal effect (EC50) of more than 300 µM.

Regarding `Cc1ccc(N2CC(C(=O)Nc3c4c(nn3C(C)(C)C)CS(=O)(=O)C4)CC2=O)cc1` (stereo not given) [N-[2-tert-butyl-5,5-bis(oxidanylidene)-4,6-dihydrothieno[3,4-c]pyrazol-3-yl]-1-(4-methylphenyl)-5-oxidanylidene-pyrrolidine-3-carboxamide], the EC50 was more than 300 µM.

Turning to `COc1ccc(N2CCN(c3cc(C)nc4ccc(OC)cc34)CC2)cc1` [MLS001174346], the EC50 was more than 300 µM.

As to `Nc1nc(NCc2ccco2)nc(NC2CCCCC2)c1[N+](=O)[O-]` [MLS000769818], the EC50 is more than 300 µM.

`O=C(Nc1ccccn1)Nc1ccccc1[N+](=O)[O-]` [N-(2-nitrophenyl)-N'-pyridin-2-ylurea] had an EC50 of more than 300 µM.

In the case of `Cc1ccc2c(c1)=C(NN1C(=O)c3ccccc3C1=O)C(=O)N=2` [MLS000573597], the half-maximal effective concentration (EC50) is more than 300 µM.

As to `O=c1c(O)c(-c2ccc(O)c(O)c2)oc2cc(O)cc(O)c12` [2-(3,4-dihydroxyphenyl)-3,5,7-trihydroxy-chromone;hydrate], the EC50 is 10.1 µM.

With `COc1cccc(C(N)=O)c1`, the EC50 was more than 300 µM.

`O=C(O)COCC(=O)N1CCN(C(c2ccccc2)c2ccccc2)CC1` [2-[2-(4-benzhydrylpiperazino)-2-oxoethoxy]acetic acid] displayed an EC50 of more than 300 µM.

For the molecule `Cn1nc(C(F)(F)F)c2cc(NC(=O)OCc3ccc(C(C)(C)C)cc3)sc21` [(4-tert-butylphenyl)methyl N-[1-methyl-3-(trifluoromethyl)thieno[2,3-c]pyrazol-5-yl]carbamate], the EC50 was more than 300 µM.

`COc1ccc(Nc2nc(NCc3ccco3)nc(N)c2[N+](=O)[O-])cc1` [2-N-(furan-2-ylmethyl)-4-N-(4-methoxyphenyl)-5-nitropyrimidine-2,4,6-triamine] came in with a half-maximal effective concentration (EC50) of more than 300 µM.

Turning to `CC(=O)Nc1cccc(Nc2nc(-c3ccccc3)nc3ccccc23)c1` [SMR000384461], the EC50 was more than 300 µM.

In the case of `Cc1ccc(NC(=O)c2ccc(C)c(S(=O)(=O)N3CCCCC3)c2)nc1` [MLS001078236], the EC50 is more than 300 µM.

With `COc1cccc(OC)c1OCCNCC1COc2ccccc2O1` (stereo not given) [WB-4101 hydrochloride], the EC50 is more than 300 µM.

As to `COc1cccc(C(=O)NCC(=O)NN=C(C)C=Cc2ccccc2)c1` [MLS000723417], the concentration for a half-maximal effect (EC50) is more than 300 µM.

As to `CCOC(=O)CSc1nnc(-c2cccs2)n1-c1ccccc1`, the EC50 is more than 300 µM.

Regarding `CC(=O)Nc1cccc2c1C(=O)NC2=O` [N-(1,3-dioxoisoindol-4-yl)acetamide], the EC50 stood at 31.7 µM.

As to `CCOC(=O)Cc1csc(NC(=O)CSc2nc(-c3ccccc3)c(C#N)c(=O)[nH]2)n1` [MLS000690700], the concentration for a half-maximal effect (EC50) was more than 300 µM.

`CSc1nc(NCC(C)O)c2c3c(sc2n1)CN(C)CC3` (stereo not given) [1-[(7-methyl-2-methylsulfanyl-6,8-dihydro-5H-pyrido[4,5]thieno[1,2-c]pyrimidin-4-yl)amino]propan-2-ol] registered an EC50 of 18.3 µM.

As for `CC1=C(C#N)C(=O)NC(=O)C1=CNc1ccc(S(=O)(=O)N(C)C)cc1`, the 50% effective concentration (EC50) was more than 300 µM.

For the molecule `O=C(Nc1ccc(Cl)c(Cl)c1)Nc1ccccn1` [SMR000515062], the 50% effective concentration (EC50) was determined as 47.2 µM.

For the molecule `CN(C)S(=O)(=O)c1cc(NC(=O)COC(=O)Cc2ccc(Br)cc2)ccc1Cl` [SMR000243172], the EC50 was more than 300 µM.

`NS(=O)(=O)c1ccc(-c2ccc(/C=C3\NC(=S)NC3=O)o2)cc1` showed an EC50 of 46.5 µM.

The molecule `O=C(O)/C=C/c1cccc2c1OCCO2` [(E)-3-(2,3-dihydro-1,4-benzodioxin-5-yl)-2-propenoic acid] displayed an EC50 of more than 300 µM.

Take `CC1=NC(=O)NC(c2ccc(O)cc2)C1C(=O)OCC1CCCO1` (stereo not given): the concentration giving a half-maximal response (EC50) is more than 300 µM.

`Cc1nc(Nc2ccccc2)sc1C` [4,5-dimethyl-N-phenyl-1,3-thiazol-2-amine] showed an EC50 of more than 300 µM.

`CCc1c(C(=O)Nc2ccccc2C(N)=O)csc1C` [SMR000679541] had an EC50 of more than 300 µM.

On to `COc1cccc(C2Nc3ccccc3N=C3CC(C)(C)CC(=O)C32)c1` (stereo not given) [MLS001207292], for which the EC50 is more than 300 µM.

Consider `O=Cc1cn(CCC(=O)O)nc1-c1cccc(Br)c1` [3-[3-(3-bromophenyl)-4-formylpyrazol-1-yl]propanoic acid], for which the EC50 was more than 300 µM.

`O=C(O)c1ccccc1Nc1ccnc(Cl)n1` [2-[(2-chloro-4-pyrimidinyl)amino]benzoic acid] showed an EC50 of more than 300 µM.

As to `O=C(O)/C=C/c1cn(-c2ccccc2)nc1-c1cccc([N+](=O)[O-])c1` [MLS000774824], the concentration for a half-maximal effect (EC50) is more than 300 µM.

For `O=C1NC(c2cccnc2)Nc2sc3c(c21)CCCC3` (stereo not given) [SMR000114421], the concentration for a half-maximal effect (EC50) was more than 300 µM.

The molecule `COc1cccc(C(=O)CN2C=CC=CC2=CN=O)c1` [2-[(hydroxyimino)methyl]-1-[2-(3-methoxyphenyl)-2-oxoethyl]pyridinium] showed a concentration for a half-maximal effect (EC50) of more than 300 µM.

`CN(C)CCCNc1ccc(-c2cc(Nc3cccc(Cl)c3)ncn2)cn1` [SMR000463569] returned an EC50 of 12.2 µM. This counts as double-digit micromolar.

On to `Cc1cc(-c2n[nH]c3c2C(c2cccc(O)c2)C(C#N)C(=N)O3)c(C)s1` (stereo not given) [SMR000136653], for which a half-maximal response (EC50) required 25.4 µM.

`CCN1CCN(C(=O)c2ccc3c(c2)N(Cc2ccc(F)cc2)C(=O)c2ccccc2[S+]3[O-])CC1` (stereo not given) [MLS000117749] registered an EC50 of more than 300 µM.

Regarding `Nc1ncc(-c2ccccc2)c(-c2ccc(O)cc2O)n1`, a half-maximal response (EC50) required 7.69 µM.

For `Cc1ccc(C(=O)Nc2ccccc2C(=O)NCc2ccco2)cc1S(=O)(=O)N1CCCCC1` [SMR000076380], the EC50 was more than 300 µM.

Molecule `CCOc1ccc2nc(NC(=O)CSc3nc(O)c(C#N)c(-c4ccccc4)n3)sc2c1` had a concentration for a half-maximal effect (EC50) of 34.2 µM.

Consider `CCOC(=O)CC(=O)CSc1ccc2nnc(-c3ccc(C)cc3)n2n1` [3-keto-4-[[3-(p-tolyl)-[1,2,4]triazolo[4,3-b]pyridazin-6-yl]thio]butyric acid ethyl ester], for which the EC50 came out at 14.3 µM. Compared with the last molecule, the EC50 is about 2.4-fold lower.

For the molecule `N#Cc1c(N)n(-c2cccc(O)c2)c2nc3ccccc3nc12` [SMR000413688], the concentration for a half-maximal effect (EC50) was more than 300 µM.

`C[C@H](C(O)c1ccccc1)N(C)C(=O)CN` (stereo not given in full) [SMR000639412] returned an EC50 of more than 300 µM.

Take `COc1ccc(Nc2nc(N)c(C(=O)c3ccc(F)cc3)s2)cc1` [{4-amino-2-[(4-methoxyphenyl)amino]-1,3-thiazol-5-yl}(4-fluorophenyl)methanone]: it took 0.662 µM to reach a half-maximal effect (EC50).

On to `CCCCCOc1ccc(C=NNC(=O)c2nnn(-c3nonc3N)c2CN2CCCCCC2)cc1` [1-(4-azanyl-1,2,5-oxadiazol-3-yl)-5-(azepan-1-ylmethyl)-N-[(4-pentoxyphenyl)methylideneamino]-1,2,3-triazole-4-carboxamide], for which the midpoint of the response, the EC50, lay at 9.79 µM.

As to `CCN1CCc2c(sc(NC(=O)CN3C(=O)c4ccccc4C3=O)c2C(N)=O)C1` [2-[2-[1,3-bis(oxidanylidene)isoindol-2-yl]ethanoylamino]-6-ethyl-5,7-dihydro-4H-thieno[2,3-c]pyridine-3-carboxamide;hydrochloride], the EC50 is more than 300 µM.

`Cc1ccc(-c2nn(-c3ccccc3)cc2CN=O)cc1` [N-[[3-(4-methylphenyl)-1-phenylpyrazol-4-yl]methylidene]hydroxylamine] returned a concentration giving a half-maximal response (EC50) of 0.565 µM.

`CC(C)c1ccc(NC2=CC(=O)CC(C)(C)C2)cc1` [SMR000558851] came in with a concentration giving a half-maximal response (EC50) of more than 300 µM.

`O=c1c2[nH]c3ccccc3c2ncn1C1CCCCC1` [SMR000039546] yielded an EC50 of more than 300 µM.

As to `CCCCc1cc(=O)oc2cc(OCC(=O)N(CC)CC)ccc12`, the half-maximal effective concentration (EC50) is more than 300 µM.

The molecule `COC(=O)c1nnn(-c2nonc2N)c1CSc1ccccn1` [1-(4-amino-1,2,5-oxadiazol-3-yl)-5-[(2-pyridinylthio)methyl]-4-triazolecarboxylic acid methyl ester] yielded an EC50 of 21.1 µM.

With `CSc1nnnn1-c1c(C)cccc1C` [MLS000861118], the EC50 is more than 300 µM.

`Cc1c(C(=O)O)cccc1-n1c(C)cc(CN=Nc2ccc([N+](=O)[O-])cn2)c1C` registered a half-maximal effective concentration (EC50) of 21.3 µM.

Consider `O=C(COC(=O)C1CCN(S(=O)(=O)c2ccccc2)CC1)NC(=O)c1ccc(OC(F)F)cc1` [MLS000394677], for which the EC50 was more than 300 µM.

Regarding `O=C(Nc1cccc2c1C(=O)NC2=O)c1ccc(-n2c(O)ccc2O)cc1` [N-[1,3-bis(oxidanylidene)isoindol-4-yl]-4-[2,5-bis(oxidanylidene)pyrrolidin-1-yl]benzamide], the response was half-maximal at 77.1 µM (EC50).

`CCCCC(CC)C(=O)Nc1ncc([N+](=O)[O-])s1` (stereo not given) [2-ethyl-N-(5-nitro-2-thiazolyl)hexanamide] yielded an EC50 of 64.2 µM.
